From patent publication US11008346B2, “Beta-lactamase inhibitors” (priority 2014, dated 2021)
Where two headings read alike, the source gives them in different places.

Key:
[1] = molecular target: T1, VIM-2 metallo β-lactamase (Pseudomonas aeruginosa, UniProt Q9K2N0); experiment: β-lactamase enzyme inhibition, VIM-2; assay type: biochemical; settings: Nitrocefin 100 μM, 486 nm; 15 min at 37° C. preincubation; read-out: IC50 VIM-2 (Class B)
T1 construct: made in house; host or cells: E. coli BL21(DE3)
Outline: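 VIM-2 purified by Q sepharose anion exchange (50 mM Hepes pH 7.5, 0-600 mM NaCl gradient, two runs, >90% purity). Enzyme preincubated with inhibitor 15 min at 37° C; nitrocefin 100 μM final, absorbance at 486 nm followed 10 min. IC50 from initial hydrolysis rates versus inhibitor-free controls.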

[2] = tested on: P. aeruginosa Ps296 expressing VIM-2; experiment: broth microdilution MIC, P. aeruginosa VIM-2; assay type: cell-based; settings: Fixed Mero (meropenem) 4 μg/mL
Outline: (§1)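 Compounds were titrated in 2-fold steps from 32 to 0.25 μg/mL in cation-adjusted Mueller Hinton broth with a β-lactam held at 4 μg/mL. Plates were inoculated by CLSI broth microdilution with strains pre-grown 3–5 h. After 16–20 h at 37 °C, MIC was read visually.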

[3] = tested on: E. coli ESBL4 expressing CTX-M-15; experiment: broth microdilution MIC, E. coli CTX-M-15; assay type: cell-based; settings: Fixed CAZ (ceftazidime) 4 μg/mL
Outline: as §1

[4] = molecular target: T2, KPC-2 β-lactamase (Klebsiella pneumoniae, UniProt Q9F663); experiment: β-lactamase enzyme inhibition, KPC-2; assay type: biochemical
T2 construct: made in house; host or cells: E. coli BL21(DE3)
Outline: (§2)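 Native untagged enzymes expressed in E. coli BL21(DE3) and purified by cation exchange and gel filtration were preincubated with inhibitor for 15 min at 37° C. Hydrolysis was followed for 10 min: nitrocefin (100 μM final, 486 nm) for OXA-1 and p99 AmpC, imipenem (300 nm) for KPC-2, cefotaxime (260 nm) for SHV-5; IC50 from initial rates.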

[5] = tested on: K. pneumoniae 156319 expressing KPC-3; experiment: broth microdilution MIC, K. pneumoniae KPC-3; assay type: cell-based; settings: Fixed Mero (meropenem) 4 μg/mL
Outline: as §1

[6] = molecular target: T3, OXA-1 β-lactamase (Escherichia coli, UniProt P13661); experiment: β-lactamase enzyme inhibition, OXA-1; assay type: biochemical; settings: Nitrocefin 100 μM, 486 nm; 15 min at 37° C. preincubation; read-out: IC50 OXA-1 (Class D)
T3 construct: made in house; host or cells: E. coli BL21(DE3)
Outline: as §2

[7] = tested on: E. cloacae 144200 expressing Class C P99 AmpC; experiment: broth microdilution MIC, E. cloacae P99; assay type: cell-based; settings: Fixed CAZ (ceftazidime) 4 μg/mL
Outline: as §1

[8] = tested on: S. aureus MSSA-7 producing penicillinase PC-1; experiment: broth microdilution MIC, S. aureus PC-1; assay type: cell-based; settings: Fixed Pip (piperacillin) 4 μg/mL
Outline: as §1

[9] = molecular target: T4, SHV-5 β-lactamase (Klebsiella pneumoniae, UniProt P0A3M1); experiment: β-lactamase enzyme inhibition, SHV-5; assay type: biochemical
T4 construct: made in house; host or cells: E. coli BL21(DE3)
Outline: as §2

[10] = tested on: K. pneumoniae A-1797 expressing KPC-2 and VIM-4; experiment: broth microdilution MIC, K. pneumoniae KPC-2 and VIM-4; assay type: cell-based; settings: Fixed Mero (meropenem) 4 μg/mL
Outline: as §1

[11] = molecular target: T5, p99 AmpC β-lactamase (Enterobacter cloacae, UniProt P05364); experiment: β-lactamase enzyme inhibition, p99 AmpC; assay type: biochemical
T5 construct: made in house; host or cells: E. coli BL21(DE3)
Outline: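 Native untagged E. cloacae p99 AmpC was expressed in E. coli BL21(DE3) and purified by cation exchange and gel filtration. Enzyme was preincubated with inhibitor at 37°C for 15 min.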

[12] = imipenem substrate, 300 nm, 15 min at 37° C. preincubation, read-out: IC50 KPC-2 (Class A)

T5 sequence (P05364 21-381): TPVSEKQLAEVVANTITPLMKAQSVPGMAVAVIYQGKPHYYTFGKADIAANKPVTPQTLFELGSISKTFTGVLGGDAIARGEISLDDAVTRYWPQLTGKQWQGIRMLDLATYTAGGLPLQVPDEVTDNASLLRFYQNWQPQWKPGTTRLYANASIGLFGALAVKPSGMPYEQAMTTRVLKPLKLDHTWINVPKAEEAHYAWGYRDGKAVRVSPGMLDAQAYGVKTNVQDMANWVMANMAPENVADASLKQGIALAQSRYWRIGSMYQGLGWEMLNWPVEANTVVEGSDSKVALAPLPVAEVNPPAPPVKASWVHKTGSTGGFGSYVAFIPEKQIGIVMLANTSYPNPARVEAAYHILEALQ
T4 sequence (P0A3M1 22-286): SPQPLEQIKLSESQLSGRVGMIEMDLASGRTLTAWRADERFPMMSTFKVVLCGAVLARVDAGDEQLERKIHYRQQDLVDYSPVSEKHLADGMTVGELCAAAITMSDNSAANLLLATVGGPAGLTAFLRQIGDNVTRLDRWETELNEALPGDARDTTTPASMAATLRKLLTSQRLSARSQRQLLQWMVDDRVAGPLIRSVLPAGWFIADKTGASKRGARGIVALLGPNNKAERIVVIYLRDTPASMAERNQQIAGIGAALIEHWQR
T2 sequence (Q9F663 25-293, looked up): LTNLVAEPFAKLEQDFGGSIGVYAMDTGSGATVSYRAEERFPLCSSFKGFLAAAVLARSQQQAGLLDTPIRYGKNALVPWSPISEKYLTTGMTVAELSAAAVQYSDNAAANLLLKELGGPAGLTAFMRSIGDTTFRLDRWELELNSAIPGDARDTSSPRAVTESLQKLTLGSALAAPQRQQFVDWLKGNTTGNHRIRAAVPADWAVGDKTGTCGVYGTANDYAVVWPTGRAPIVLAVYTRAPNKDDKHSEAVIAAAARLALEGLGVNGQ
T3 sequence (P13661 26-276): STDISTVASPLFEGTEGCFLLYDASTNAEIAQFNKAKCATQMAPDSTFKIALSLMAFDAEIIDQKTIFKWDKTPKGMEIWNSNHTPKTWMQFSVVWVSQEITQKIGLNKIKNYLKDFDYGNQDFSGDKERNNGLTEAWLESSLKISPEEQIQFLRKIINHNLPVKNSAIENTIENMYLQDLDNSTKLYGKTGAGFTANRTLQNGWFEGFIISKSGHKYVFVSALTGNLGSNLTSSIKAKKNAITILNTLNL

| Structure (SMILES) | IC50 [1] | MIC of exemplary compounds in presence of fixed β-lactams, P. aerug. Ps296 VIM-2 [2] | MIC of exemplary compounds in presence of fixed β-lactams, E. coli ESBL4 CTX-M-15 [3] | IC50 [4, 12] | MIC of exemplary compounds in presence of fixed β-lactams, K.P. 156319 KPC-3 [5] | IC50 [6] | MIC of exemplary compounds in presence of fixed β-lactams, E. cl. 144200 p99 AmpC [7] | MIC of exemplary compounds in presence of fixed β-lactams, S. aureus MSSA-7 PC-1 [8] | IC50 [9] | MIC of exemplary compounds in presence of fixed β-lactams, K.P. A-1797 KPC-2 VIM-4 [10] | IC50 [11] | IC50 [4] |
| --- | --- | --- | --- | --- | --- | --- | --- | --- | --- | --- | --- | --- |
| CN(C)C(=O)CCC(=O)N[C@H]1Cc2cccc(C(=O)O)c2OB1O [Example 15, (R)-3-(3-Dimethylcarbamoyl-propionylamino)-2-hydroxy-3,4-dihydro-2H-benzo[e][1,2]oxaborinine-8-carboxylicacid] | 10 to 100 µM | B (B represents the MIC in the presence of between 8 and 32 g/mL of a β-lactamase inhibitor) | C (C represents the MIC in the presence of ≤4 g/mL of a β-lactamase inhibitor) | < 0.1 µM | C (C represents the MIC in the presence of ≤4 g/mL of a β-lactamase inhibitor) | < 0.1 µM | C (C represents the MIC in the presence of ≤4 g/mL of a β-lactamase inhibitor) | C (C represents the MIC in the presence of ≤4 g/mL of a β-lactamase inhibitor) | < 0.1 µM | A (A represents an MIC of the fixed β-lactam antibiotic in the presence of >32 g/mL of a β-lactamase inhibitor) | < 0.1 µM |  |
| CS(=O)(=O)NCCC(=O)N[C@H]1Cc2cccc(C(=O)O)c2OB1O [Example 22, (R)-2-Hydroxy-3-(3-methanesulfonylamino-propionylamino)-3,4-dihydro-2H-benzo[e][1,2]oxaborinine-8-carboxylic acid] | 1 to 10 µM | B (B represents the MIC in the presence of between 8 and 32 g/mL of a β-lactamase inhibitor) | C (C represents the MIC in the presence of ≤4 g/mL of a β-lactamase inhibitor) |  | C (C represents the MIC in the presence of ≤4 g/mL of a β-lactamase inhibitor) | < 0.1 µM | C (C represents the MIC in the presence of ≤4 g/mL of a β-lactamase inhibitor) | C (C represents the MIC in the presence of ≤4 g/mL of a β-lactamase inhibitor) | < 0.1 µM | B (B represents the MIC in the presence of between 8 and 32 g/mL of a β-lactamase inhibitor) | < 0.1 µM | < 0.1 µM |
| CC(=O)NCCC(=O)N[C@H]1Cc2cccc(C(=O)O)c2OB1O [Example 20, (R)-3-(3-Acetylamino-propionylamino)-2-hydroxy-3,4-dihydro-2H-benzo[e][1,2]oxaborinine-8-carboxylicacid] | 1 to 10 µM | A (A represents an MIC of the fixed β-lactam antibiotic in the presence of >32 g/mL of a β-lactamase inhibitor) | C (C represents the MIC in the presence of ≤4 g/mL of a β-lactamase inhibitor) | < 0.1 µM | C (C represents the MIC in the presence of ≤4 g/mL of a β-lactamase inhibitor) | < 0.1 µM | C (C represents the MIC in the presence of ≤4 g/mL of a β-lactamase inhibitor) | B (B represents the MIC in the presence of between 8 and 32 g/mL of a β-lactamase inhibitor) | < 0.1 µM | B (B represents the MIC in the presence of between 8 and 32 g/mL of a β-lactamase inhibitor) | < 0.1 µM |  |
| O=C(O)c1cccc2c1OB(O)[C@@H](NC(=O)C(Cl)CC(F)F)C2 (stereo partly drawn) [Example 5, (R)-3-(2-Chloro-4,4-difluoro-butyrylamino)-2-hydroxy-3,4-dihydro-2H-benzo[e][1,2]oxaborinine-8-carboxylic acid] | 1 to 10 µM | A (A represents an MIC of the fixed β-lactam antibiotic in the presence of >32 g/mL of a β-lactamase inhibitor) | C (C represents the MIC in the presence of ≤4 g/mL of a β-lactamase inhibitor) | < 0.1 µM | C (C represents the MIC in the presence of ≤4 g/mL of a β-lactamase inhibitor) | < 0.1 µM | C (C represents the MIC in the presence of ≤4 g/mL of a β-lactamase inhibitor) | C (C represents the MIC in the presence of ≤4 g/mL of a β-lactamase inhibitor) | < 0.1 µM | B (B represents the MIC in the presence of between 8 and 32 g/mL of a β-lactamase inhibitor) | < 0.1 µM |  |
| COCCOCC(=O)N[C@H]1Cc2cccc(C(=O)O)c2OB1O [Example 27, (R)-2-Hydroxy-3-[2-(2-methoxy-ethoxy)-acetylamino]-3,4-dihydro-2H-benzo[e][1,2]oxaborinine-8-carboxylic acid] | 0.1 to 1 µM | A (A represents an MIC of the fixed β-lactam antibiotic in the presence of >32 g/mL of a β-lactamase inhibitor) | C (C represents the MIC in the presence of ≤4 g/mL of a β-lactamase inhibitor) | < 0.1 µM | C (C represents the MIC in the presence of ≤4 g/mL of a β-lactamase inhibitor) | < 0.1 µM | C (C represents the MIC in the presence of ≤4 g/mL of a β-lactamase inhibitor) | C (C represents the MIC in the presence of ≤4 g/mL of a β-lactamase inhibitor) | < 0.1 µM | B (B represents the MIC in the presence of between 8 and 32 g/mL of a β-lactamase inhibitor) | < 0.1 µM |  |
| COCCC(=O)N[C@H]1Cc2cccc(C(=O)O)c2OB1O [Example 26, (R)-2-Hydroxy-3-(3-methoxy-propionylamino)-3,4-dihydro-2H-benzo[e][1,2]oxaborinine-8-carboxylic acid] | 1 to 10 µM | B (B represents the MIC in the presence of between 8 and 32 g/mL of a β-lactamase inhibitor) | C (C represents the MIC in the presence of ≤4 g/mL of a β-lactamase inhibitor) | < 0.1 µM | C (C represents the MIC in the presence of ≤4 g/mL of a β-lactamase inhibitor) | < 0.1 µM | C (C represents the MIC in the presence of ≤4 g/mL of a β-lactamase inhibitor) | C (C represents the MIC in the presence of ≤4 g/mL of a β-lactamase inhibitor) | 0.1 to 1 µM | B (B represents the MIC in the presence of between 8 and 32 g/mL of a β-lactamase inhibitor) | < 0.1 µM |  |
| CON=C(C)CCC(=O)N[C@H]1Cc2cccc(C(=O)O)c2OB1O [Example 18, (R)-2-Hydroxy-3-(4-methoxyimino-pentanoylamino)-3,4-dihydro-2H-benzo[e][1,2]oxaborinine-8-carboxylic acid] | 1 to 10 µM | B (B represents the MIC in the presence of between 8 and 32 g/mL of a β-lactamase inhibitor) | C (C represents the MIC in the presence of ≤4 g/mL of a β-lactamase inhibitor) | < 0.1 µM | C (C represents the MIC in the presence of ≤4 g/mL of a β-lactamase inhibitor) | < 0.1 µM | C (C represents the MIC in the presence of ≤4 g/mL of a β-lactamase inhibitor) | C (C represents the MIC in the presence of ≤4 g/mL of a β-lactamase inhibitor) | < 0.1 µM | A (A represents an MIC of the fixed β-lactam antibiotic in the presence of >32 g/mL of a β-lactamase inhibitor) | < 0.1 µM |  |
